# Results from paper PMC10439028, “SGLT5 is the renal transporter for 1,5-anhydroglucitol, a major player in two rare forms of neutropenia” (Cellular and Molecular Life Sciences: CMLS, 2023).
# Numbering of substitutions follows the chain as printed.
# Columns and labels:
# hSGLT5 Arg401His = biological target: T1, hSGLT5 Arg401His (Homo sapiens, UniProt A0PJK1, R401H); assay: Inhibition of 10 µM 1,5-AG transport by SGLT5 variant Arg401His; type: cell-based; conditions: Fig. 5D
# T1 construct: pUB83-hSGLT5-iso2 as well as the various SGLT5 mutants obtained were used to transduce HEK293T cells; expressed in transfected cells; host or cells: HEK293T, lentiviral transduction (pUB83)
# T1 sequence (A0PJK1 1-596 R401H): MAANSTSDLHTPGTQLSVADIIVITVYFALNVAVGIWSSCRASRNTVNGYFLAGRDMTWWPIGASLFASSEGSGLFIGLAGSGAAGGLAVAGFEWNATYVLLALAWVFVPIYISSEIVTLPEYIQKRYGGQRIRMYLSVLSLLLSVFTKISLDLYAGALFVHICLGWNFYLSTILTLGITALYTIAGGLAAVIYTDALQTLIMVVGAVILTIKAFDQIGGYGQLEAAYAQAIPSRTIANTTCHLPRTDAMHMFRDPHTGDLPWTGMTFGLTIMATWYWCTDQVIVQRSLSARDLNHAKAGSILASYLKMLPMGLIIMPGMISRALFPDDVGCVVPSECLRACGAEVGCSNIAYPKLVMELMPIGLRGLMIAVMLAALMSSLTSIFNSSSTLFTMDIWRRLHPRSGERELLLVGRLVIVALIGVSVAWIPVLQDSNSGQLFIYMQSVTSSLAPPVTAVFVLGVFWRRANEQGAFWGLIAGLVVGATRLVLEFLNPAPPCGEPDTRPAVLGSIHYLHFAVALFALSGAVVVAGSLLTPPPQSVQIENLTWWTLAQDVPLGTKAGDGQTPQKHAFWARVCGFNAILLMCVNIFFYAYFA
# Experimental: (§1) The transport experiments to study the specificity of SGLT4 or SGLT5, were performed in the presence of 10 µM U-[^14C + ^12C]-mannose (for SGLT4) or 2-[^3H + ^1H]-1,5-AG (for SGLT5) and increasing concentrations of various sugars tested. The transport experiments to study the inhibition of empagliflozin, dapagliflozin or remogliflozin, on the transport of 1,5-AG by SGLT5 or its variants were performed in the presence of 10 µM 2-[^3H + ^1H]-1,5-AG and increasing concentrations of the various gliflozins tested.
# (§2) SGLT5 mutants were created using the quick-change site directed mutagenesis method that enables effective mutagenesis without subcloning of the amplified PCR products. Complementary primer pairs carrying the desired replacements (Supplementary Table 3) were designed using an online tool (https://www.agilent.com/store/primerDesignProgram.jsp). The PCR protocol was carried out following the manufacturer instructions regarding the KOD HOT Start polymerase kit (TOYOBO™, Novagen). The amplified DNA was cleaned-up from the reactions constituents using the GeneJET PCR purification Kit (Thermo Scientific™) and the size of the DNA fragment were verified by DNA agarose-gel electrophoresis. […]
# hSGLT5 Asn96Ile = biological target: T2, hSGLT5 Asn96Ile (Homo sapiens, UniProt A0PJK1, N96I); assay: Inhibition of 10 µM 1,5-AG transport by SGLT5 variant Asn96Ile; type: cell-based; conditions: mutation Asn96Ile versus SGLT5, Fig. 5D
# T2 construct: pUB83-hSGLT5-iso2 as well as the various SGLT5 mutants obtained were used to transduce HEK293T cells; expressed in transfected cells; host or cells: HEK293T, lentiviral transduction (pUB83)
# T2 sequence (A0PJK1 1-596 N96I): T1 sequence (A0PJK1 1-596 R401H) with N96I, H401R
# Experimental: as §1, §2
smiles,measurement,setting,value
OC[C@H]1O[C@@H](c2ccc(Cl)c(Cc3ccc(O[C@H]4CCOC4)cc3)c2)[C@H](O)[C@@H](O)[C@@H]1O [empagliflozin],effect of mutation on concentration of empagliflozin needed to inhibit SGLT5,hSGLT5 Arg401His,did not affect significantly
same,effect of mutation on inhibition exerted by empagliflozin,hSGLT5 Asn96Ile,considerably decreased (by more than tenfold)
